The record followed here is patent US9161924B2, “Factor IXa inhibitors” (Merck Sharp & Dohme Corp., priority 2011, dated 2015).

Where a name gives a salt, the structure may show the parent alone.

human factor IXa, sequence (P00740 227-461): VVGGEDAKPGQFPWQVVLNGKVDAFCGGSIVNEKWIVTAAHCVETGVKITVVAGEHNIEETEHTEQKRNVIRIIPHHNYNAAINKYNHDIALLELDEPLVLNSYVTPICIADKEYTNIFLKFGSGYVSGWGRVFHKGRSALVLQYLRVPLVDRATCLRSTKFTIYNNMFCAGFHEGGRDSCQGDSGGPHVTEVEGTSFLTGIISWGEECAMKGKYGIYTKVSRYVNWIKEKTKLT
human factor IXa, sequence (P00740 47-191 partner): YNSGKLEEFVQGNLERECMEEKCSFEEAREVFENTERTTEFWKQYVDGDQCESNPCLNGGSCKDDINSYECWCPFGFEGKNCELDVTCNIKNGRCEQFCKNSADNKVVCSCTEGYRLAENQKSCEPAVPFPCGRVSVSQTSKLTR

The target of this test is human factor IXa (Homo sapiens (Human), UniProt P00740). In words: Factor IXa enzyme assay (inhibitory activity against factor IXa). To be noted: substrate SPECTROFLUOR FIXa 100 μM, factor IXa 2.0 μg/ml, 60 minutes at room temperature, fluorescence. Type of test: biochemical. On the procedure:
Determination of Inhibitory Activity Against Factor IXa
Inhibitory activity against factor IXa was tested using the substrate SPECTROFLUOR FIXa (American Diagnostica Inc.; 500 West Avenue, Stamford, Conn. 06902 USA; Pr. No. 299F) and human factor IXa (American Diagnostica Inc.; Pr. No. 449b). Test substances dissolved in buffer A (50 mM α,α,α-tris (hydroxymethyl)methylamine (Tris), 100 mM NaCl, 5 mM CaCl2, 15% (v/v) ethylene glycol, pH 8.0) were mixed with factor IXa (2.0 μg/ml final concentration). The enzyme reaction was started by addition of SPECTROFLUOR FIXa (100 μM final concentration). After incubation for 60 minutes at room temperature, the reaction was stopped by the addition of 20% (v/v) acetic acid solution, and then fluorescence value measured (Excitation Wavelength:355 nm, Emission Wavelength; 460 nm) in a microtiter plate reader (ARVO 1420 Multilabel Counter; PerkinElmer).
IC50 was calculated from a dilution series of the test substance with the aid of the software, Symix Assay Explorer (Symyx Technologies, Inc.).
What is called IC50 is the concentration that gives 50% inhibition. Read a high IC50 as lower potency. `N=C(N)c1ccc(NC(=O)C(O)c2cccc(-c3ccc(OC(F)(F)F)cc3)c2)cc1` (stereo not drawn) [Compound 9, N-(4-carbamimidoylphenyl)-2-hydroxy-2-(4′-(trifluoromethoxy)biphenyl-3-yl)acetamide] had a 50% inhibitory concentration (IC50) of 440 nM.
With `CC(C)(C)c1ccc(-c2cccc(C(O)C(=O)Nc3ccc(C(=N)N)cc3)c2)cc1` (stereo not drawn) [Compound 37, 2-(4′-tert-butylbiphenyl-3-yl)-N-(4-carbamimidoylphenyl)-2-hydroxyacetamide hydrochloride], it took 160 nM to reach half-maximal inhibition (IC50).
Turning to `CC(C)(C)c1ccc(-c2cccc(C(O)C(=O)Nc3ccc(CN)cc3)c2)cc1` (stereo not drawn) [Compound 52, N-(4-(aminomethyl)phenyl)-2-(4′-tert-butylbiphenyl-3-yl)-2-hydroxyacetamide hydrochloride], the IC50 came out at 1450 nM.
As for `N=C(N)c1ccc(NC(=O)C(O)c2cccc(-c3ccc(OC(F)(F)F)cc3)c2)cc1` (stereo not drawn) [Compound 13, N-(4-carbamimidoylphenyl)-2-hydroxy-2-(4′-(trifluoromethoxy)biphenyl-3-yl)acetamide], the figure is 450 nM; as for `CC(C)(C)c1ccc(-c2cccc(C(O)C(=O)Nc3ccc4c(N)nccc4c3)c2)cc1` (stereo not drawn) [Compound 42, N-(1-aminoisoquinolin-6-yl)-2-(4′-tert-butylbiphenyl-3-yl)-2-hydroxyacetamide hydrochloride], 695 nM.
In turn, `Nc1nccc2cc(NC(=O)C(O)c3cccc(-c4ccc(OC(F)(F)F)cc4)c3)ccc12` (stereo not drawn) [Compound 22, N-(1-aminoisoquinolin-6-yl)-2-hydroxy-2-(4′-(trifluoromethoxy)biphenyl-3-yl)acetamide] showed an IC50 of 760 nM.
